Reference: patent US20220348565A1, “PHARMACEUTICAL COMPOUNDS” (SENTINEL ONCOLOGY LIMITED, priority 2019, published 2022)

Test: Gravimetric vapour sorption (GVS)
Format: physicochemical
Experimental: Sorption isotherms were obtained using a Hiden Isochema moisture sorption analyser (model IGAsorp), controlled by IGAsorp Systems Software V6.50.48. The sample was maintained at a constant temperature (25° C.) by the instrument controls. The humidity was controlled by mixing streams of dry and wet nitrogen, with a total flow of 250 ml·min-1. The instrument was verified for relative humidity content by measuring three calibrated Rotronic salt solutions (10-50-88%). The weight change of the sample was monitored as a function of humidity by a microbalance (accuracy +/−0.005 mg). A defined amount of sample was placed in a tared mesh stainless steel basket under ambient conditions. A full experimental cycle typically consisted of three scans (sorption, desorption and sorption) at a constant temperature (25° C.) and 10% RH intervals over a 0-90% range (60 minutes for each humidity level).

- moisture content before the first desorption (GVS, 25° C.): ca. 0.3%
- moisture taken up between 80 and 90% RH (GVS, 25° C., 80-90% RH): ca. 0.8%
Compound: CN(C)CCNC(=O)c1ccc(-c2ccc(-c3ccc(Cl)cc3)n2-c2ccccc2C(F)(F)F)cc1.O=C(O)C(O)C(O)C(=O)O [Tartrate Pattern B, (R)-4-[5-(4-chlorophenyl)-1-[2-(trifluoromethyl)phenyl]pyrrol-2-yl]-N-[2 (dimethylamino)ethyl]benzamide tartrate]
- solid form stability under GVS (0-90% RH cycling, XRPD post GVS): stable solid, only absorbing surface moisture with no change in form
